Test results as given in patent US9382256B2, “Formulation of Syk inhibitors” (Gilead Connecticut, Inc., priority 2013, dated 2016).
Counter-ions that a name gives are not always drawn.

Tests used:
[1] = Intrinsic dissolution rate, rotating disk apparatus; assay type: physicochemical; conditions: 100 rpm, 37±0.5° C., 500 mL
Procedure: Intrinsic dissolution measurements were conducted using a rotating disk apparatus. Disks of Compound 1, Compound 2 and Compound 3 were separately prepared by directly compressing 100 mg of a powder of the respectively compounds in a die at a pressure of 2500 psi for 2 minutes using a hydraulic press (Carver Press, Fred Carver, NJ, USA). The exposed surface area for the resulting disks was 0.5 cm^2. A USP dissolution apparatus maintained at 37±0.5° C. was used for the dissolution study. Each dissolution vessel contained 500 mL of aqueous dissolution medium of 0.05 N HCl or pH 6.8 20 mM phosphate buffer with 1% cetyltrimetrylammonium bromide (CTAB). The disk holder (die) was half-immersed into the dissolution medium and rotated at 100 rpm. Samples were withdrawn at specified time intervals and the amount of compound dissolved was determined by HPLC.
The amount of compound dissolved at each time point was plotted versus time and the observed dissolution rate (mg/min) was obtained from the slope of the plot. The observed dissolution rate was divided by the surface area of the compound disk (0.5 cm^2) to obtain the intrinsic dissolution rate.

[2] = Physical stability of dry granulation formulation during processing and storage (XRPD); assay type: physicochemical; conditions: intragranular blend, milled granules, final blend (FIG. 4)

c1cn2cc(-c3ccc4cn[nH]c4c3)nc(Nc3ccc(N4CCOCC4)cc3)c2n1 [Compound 1]
Intrinsic dissolution rate in pH 1.3 0.05N HCl with 0.9% NaCl [1]: 0.00046 mg/min/cm^2

c1cn2cc(-c3ccc4cn[nH]c4c3)nc(Nc3ccc(N4CCOCC4)cc3)c2n1 [bis-mesylate salt of Formula IA]
form change by XRPD during processing [2]: no form change was observed
